Reference: ChEMBL document CHEMBL4507281, “Data for DCP probe BI-4394” (2021)

Key:
[1] = test system: Proto-oncogene tyrosine-protein kinase receptor Ret (Homo sapiens), P07949 [V804M]; conditions: Compound concentration 100.0 nM
[2] = test system: Tyrosine-protein kinase ABL1 (Homo sapiens), P00519 [F317L]; conditions: Compound concentration 100.0 nM
[3] = target: Macrophage colony-stimulating factor 1 receptor (Homo sapiens) (UniProt P07333); conditions: Compound concentration 100.0 nM
[4] = target: Tyrosine-protein kinase receptor UFO (Homo sapiens) (UniProt P30530); conditions: Compound concentration 100.0 nM
[5] = test system: Receptor-type tyrosine-protein kinase FLT3 (Homo sapiens), P36888 [UNDEFINED MUTATION]; conditions: Compound concentration 100.0 nM
[6] = test system: Serine/threonine-protein kinase B-raf (Homo sapiens), P15056 [V600E]; conditions: Compound concentration 100.0 nM
[7] = target: Mitogen-activated protein kinase kinase kinase 1 (Homo sapiens) (UniProt Q13233); conditions: Compound concentration 100.0 nM
[8] = target: Muscarinic acetylcholine receptor M3 (Homo sapiens) (UniProt P20309); conditions: Compound concentration 10.0 uM
[9] = target: Serine/threonine-protein kinase 32B (Homo sapiens) (UniProt Q9NY57); conditions: Compound concentration 100.0 nM
[10] = target: LIM domain kinase 1 (Homo sapiens) (UniProt P53667); conditions: Compound concentration 100.0 nM
[11] = target: Homeodomain-interacting protein kinase 4 (Homo sapiens) (UniProt Q8NE63); conditions: Compound concentration 100.0 nM
[12] = target: RAF proto-oncogene serine/threonine-protein kinase (Homo sapiens) (UniProt P04049); conditions: Compound concentration 100.0 nM
[13] = test system: Epidermal growth factor receptor (Homo sapiens), P00533 [UNDEFINED MUTATION]; conditions: Compound concentration 100.0 nM
[14] = target: Phosphatidylinositol 4-phosphate 5-kinase type-1 gamma (Homo sapiens) (UniProt O60331); conditions: Compound concentration 100.0 nM
[15] = target: Serine/threonine-protein kinase tousled-like 2 (Homo sapiens) (UniProt Q86UE8); conditions: Compound concentration 100.0 nM
[16] = target: Serine/threonine-protein kinase Nek4 (Homo sapiens) (UniProt P51957); conditions: Compound concentration 100.0 nM
[17] = target: Rhodopsin kinase GRK1 (Homo sapiens) (UniProt Q15835); conditions: Compound concentration 100.0 nM
[18] = test system: Epidermal growth factor receptor (Homo sapiens), P00533 [UNDEFINED MUTATION]; conditions: Compound concentration 100.0 nM; remark: listed apart in the source
[19] = target: Inhibitor of nuclear factor kappa-B kinase subunit alpha (Homo sapiens) (UniProt O15111); conditions: Compound concentration 100.0 nM
[20] = target: Mitogen-activated protein kinase kinase kinase 12 (Homo sapiens) (UniProt Q12852); conditions: Compound concentration 100.0 nM
[21] = target: Serine/threonine-protein kinase MARK2 (Homo sapiens) (UniProt Q7KZI7); conditions: Compound concentration 100.0 nM
[22] = target: Serine/threonine-protein kinase WNK4 (Homo sapiens) (UniProt Q96J92); conditions: Compound concentration 100.0 nM
[23] = test system: Tyrosine-protein kinase ABL1 (Homo sapiens), P00519 [Y253F]; conditions: Compound concentration 100.0 nM
[24] = target: High affinity nerve growth factor receptor (Homo sapiens) (UniProt P04629); conditions: Compound concentration 100.0 nM
[25] = test system: Phosphatidylinositol 4,5-bisphosphate 3-kinase catalytic subunit alpha isoform (Homo sapiens), P42336 [E545A]; conditions: Compound concentration 100.0 nM
[26] = target: Serine/threonine-protein kinase 38 (Homo sapiens) (UniProt Q15208); conditions: Compound concentration 100.0 nM
[27] = target: Fibroblast growth factor receptor 3 (Homo sapiens) (UniProt P22607); conditions: Compound concentration 100.0 nM
[28] = test system: Tyrosine-protein kinase ABL1 (Homo sapiens), P00519 [F317L]; conditions: Compound concentration 100.0 nM; remark: listed apart in the source
[29] = target: Tyrosine-protein kinase receptor Tie-1 (Homo sapiens) (UniProt P35590); conditions: Compound concentration 100.0 nM
[30] = target: Calcium/calmodulin-dependent protein kinase type 1 (Homo sapiens) (UniProt Q14012); conditions: Compound concentration 100.0 nM
[31] = target: Serine/threonine-protein kinase D1 (Homo sapiens) (UniProt Q15139); conditions: Compound concentration 100.0 nM
[32] = target: Mitogen-activated protein kinase 9 (Homo sapiens) (UniProt P45984); conditions: Compound concentration 100.0 nM
[33] = target: Ephrin type-A receptor 6 (Homo sapiens) (UniProt Q9UF33); conditions: Compound concentration 100.0 nM
[34] = test system: Epidermal growth factor receptor (Homo sapiens), P00533 [G719S]; conditions: Compound concentration 100.0 nM
[35] = target: Activin receptor type-1-like (Homo sapiens) (UniProt P37023); conditions: Compound concentration 100.0 nM
[36] = test system: Mast/stem cell growth factor receptor Kit (Homo sapiens), P10721 [D816V]; conditions: Compound concentration 100.0 nM
[37] = target: Dual specificity protein kinase CLK1 (Homo sapiens) (UniProt P49759); conditions: Compound concentration 100.0 nM
[38] = test system: Mast/stem cell growth factor receptor Kit (Homo sapiens), P10721 [V559D]; conditions: Compound concentration 100.0 nM
[39] = target: Dual specificity tyrosine-phosphorylation-regulated kinase 2 (Homo sapiens) (UniProt Q92630); conditions: Compound concentration 100.0 nM
[40] = target: 5-hydroxytryptamine receptor 5A (Homo sapiens) (UniProt P47898); conditions: Compound concentration 10.0 uM
[41] = test system: Tyrosine-protein kinase ABL1 (Homo sapiens), P00519 [F317I]; conditions: Compound concentration 100.0 nM
[42] = target: Serine/threonine-protein kinase Nek2 (Homo sapiens) (UniProt P51955); conditions: Compound concentration 100.0 nM
[43] = target: Serine/threonine-protein kinase SIK1 (Homo sapiens) (UniProt P57059); conditions: Compound concentration 100.0 nM
[44] = target: Phosphatidylinositol 4,5-bisphosphate 3-kinase catalytic subunit delta isoform (Homo sapiens) (UniProt O00329); conditions: Compound concentration 100.0 nM

Serine/threonine-protein kinase Nek2 (Homo sapiens), sequence (P51955 whole entry): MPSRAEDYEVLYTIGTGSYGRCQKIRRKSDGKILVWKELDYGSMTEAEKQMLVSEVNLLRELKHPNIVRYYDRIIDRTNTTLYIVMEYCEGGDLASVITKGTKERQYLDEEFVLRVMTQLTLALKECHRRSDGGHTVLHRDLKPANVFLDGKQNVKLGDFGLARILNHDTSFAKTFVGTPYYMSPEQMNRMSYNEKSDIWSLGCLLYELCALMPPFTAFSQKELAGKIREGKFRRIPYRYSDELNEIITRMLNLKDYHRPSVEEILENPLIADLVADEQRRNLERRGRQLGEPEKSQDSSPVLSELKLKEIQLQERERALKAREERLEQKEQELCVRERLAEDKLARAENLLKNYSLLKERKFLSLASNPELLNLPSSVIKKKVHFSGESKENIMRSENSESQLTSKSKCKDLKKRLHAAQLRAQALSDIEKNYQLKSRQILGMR
Serine/threonine-protein kinase Nek4 (Homo sapiens), sequence (P51957 whole entry, looked up): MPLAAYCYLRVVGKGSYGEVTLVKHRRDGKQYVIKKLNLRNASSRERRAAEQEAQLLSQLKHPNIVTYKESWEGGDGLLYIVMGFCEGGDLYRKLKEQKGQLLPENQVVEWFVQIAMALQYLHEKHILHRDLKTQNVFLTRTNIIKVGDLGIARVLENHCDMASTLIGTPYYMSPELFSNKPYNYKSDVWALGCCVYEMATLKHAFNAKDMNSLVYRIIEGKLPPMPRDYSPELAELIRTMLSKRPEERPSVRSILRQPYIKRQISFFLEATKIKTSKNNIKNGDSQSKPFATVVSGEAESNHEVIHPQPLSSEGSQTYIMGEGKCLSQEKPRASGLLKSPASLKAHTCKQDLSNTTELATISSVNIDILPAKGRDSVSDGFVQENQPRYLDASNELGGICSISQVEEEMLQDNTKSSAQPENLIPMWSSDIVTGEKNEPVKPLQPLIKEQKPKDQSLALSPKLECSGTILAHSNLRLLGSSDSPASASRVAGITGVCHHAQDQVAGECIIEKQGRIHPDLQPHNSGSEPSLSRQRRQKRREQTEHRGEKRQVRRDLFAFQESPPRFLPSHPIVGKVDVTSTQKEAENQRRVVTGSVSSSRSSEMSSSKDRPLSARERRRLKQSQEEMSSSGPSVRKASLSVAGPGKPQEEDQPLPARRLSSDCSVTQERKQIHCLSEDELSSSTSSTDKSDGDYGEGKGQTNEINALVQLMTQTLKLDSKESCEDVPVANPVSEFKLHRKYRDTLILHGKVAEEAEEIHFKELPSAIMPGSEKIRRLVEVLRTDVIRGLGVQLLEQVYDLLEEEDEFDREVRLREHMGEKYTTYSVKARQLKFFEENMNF
High affinity nerve growth factor receptor (Homo sapiens), sequence (P04629 33-796 limits assumed): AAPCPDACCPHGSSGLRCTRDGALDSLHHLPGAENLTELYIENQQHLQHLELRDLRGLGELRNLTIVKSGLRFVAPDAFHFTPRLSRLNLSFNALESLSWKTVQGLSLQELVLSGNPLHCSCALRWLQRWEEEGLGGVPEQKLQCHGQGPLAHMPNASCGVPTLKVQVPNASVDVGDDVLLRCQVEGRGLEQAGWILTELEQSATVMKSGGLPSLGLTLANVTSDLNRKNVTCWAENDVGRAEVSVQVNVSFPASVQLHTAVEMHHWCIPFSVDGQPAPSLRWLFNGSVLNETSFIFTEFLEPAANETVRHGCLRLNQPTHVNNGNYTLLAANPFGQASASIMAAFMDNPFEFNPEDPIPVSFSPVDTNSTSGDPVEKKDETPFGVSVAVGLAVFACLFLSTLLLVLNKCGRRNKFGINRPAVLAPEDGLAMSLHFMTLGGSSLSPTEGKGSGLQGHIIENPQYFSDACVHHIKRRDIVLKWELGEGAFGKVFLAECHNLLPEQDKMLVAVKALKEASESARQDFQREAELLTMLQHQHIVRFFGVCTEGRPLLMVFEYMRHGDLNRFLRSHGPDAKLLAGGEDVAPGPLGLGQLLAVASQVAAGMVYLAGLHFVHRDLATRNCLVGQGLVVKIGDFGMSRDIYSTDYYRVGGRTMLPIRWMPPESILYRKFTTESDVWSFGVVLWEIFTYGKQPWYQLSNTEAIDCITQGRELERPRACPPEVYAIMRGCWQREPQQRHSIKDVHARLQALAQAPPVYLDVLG
Homeodomain-interacting protein kinase 4 (Homo sapiens), sequence (Q8NE63 whole entry): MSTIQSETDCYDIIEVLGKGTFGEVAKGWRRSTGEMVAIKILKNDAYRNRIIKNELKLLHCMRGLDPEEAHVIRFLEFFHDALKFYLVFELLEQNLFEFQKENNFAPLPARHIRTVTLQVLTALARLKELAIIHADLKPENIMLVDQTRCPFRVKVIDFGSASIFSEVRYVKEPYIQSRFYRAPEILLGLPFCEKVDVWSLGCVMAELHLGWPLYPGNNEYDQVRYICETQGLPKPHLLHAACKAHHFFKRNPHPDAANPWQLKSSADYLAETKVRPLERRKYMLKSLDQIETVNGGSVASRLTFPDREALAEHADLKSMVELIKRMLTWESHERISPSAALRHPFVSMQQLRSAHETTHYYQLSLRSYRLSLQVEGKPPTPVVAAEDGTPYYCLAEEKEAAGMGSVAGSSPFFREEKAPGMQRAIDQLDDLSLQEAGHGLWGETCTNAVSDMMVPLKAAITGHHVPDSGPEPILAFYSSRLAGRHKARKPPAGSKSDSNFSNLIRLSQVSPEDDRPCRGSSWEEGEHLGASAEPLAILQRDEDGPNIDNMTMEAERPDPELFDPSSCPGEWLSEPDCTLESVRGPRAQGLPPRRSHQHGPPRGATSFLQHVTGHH
Ephrin type-A receptor 6 (Homo sapiens), sequence (Q9UF33 whole entry): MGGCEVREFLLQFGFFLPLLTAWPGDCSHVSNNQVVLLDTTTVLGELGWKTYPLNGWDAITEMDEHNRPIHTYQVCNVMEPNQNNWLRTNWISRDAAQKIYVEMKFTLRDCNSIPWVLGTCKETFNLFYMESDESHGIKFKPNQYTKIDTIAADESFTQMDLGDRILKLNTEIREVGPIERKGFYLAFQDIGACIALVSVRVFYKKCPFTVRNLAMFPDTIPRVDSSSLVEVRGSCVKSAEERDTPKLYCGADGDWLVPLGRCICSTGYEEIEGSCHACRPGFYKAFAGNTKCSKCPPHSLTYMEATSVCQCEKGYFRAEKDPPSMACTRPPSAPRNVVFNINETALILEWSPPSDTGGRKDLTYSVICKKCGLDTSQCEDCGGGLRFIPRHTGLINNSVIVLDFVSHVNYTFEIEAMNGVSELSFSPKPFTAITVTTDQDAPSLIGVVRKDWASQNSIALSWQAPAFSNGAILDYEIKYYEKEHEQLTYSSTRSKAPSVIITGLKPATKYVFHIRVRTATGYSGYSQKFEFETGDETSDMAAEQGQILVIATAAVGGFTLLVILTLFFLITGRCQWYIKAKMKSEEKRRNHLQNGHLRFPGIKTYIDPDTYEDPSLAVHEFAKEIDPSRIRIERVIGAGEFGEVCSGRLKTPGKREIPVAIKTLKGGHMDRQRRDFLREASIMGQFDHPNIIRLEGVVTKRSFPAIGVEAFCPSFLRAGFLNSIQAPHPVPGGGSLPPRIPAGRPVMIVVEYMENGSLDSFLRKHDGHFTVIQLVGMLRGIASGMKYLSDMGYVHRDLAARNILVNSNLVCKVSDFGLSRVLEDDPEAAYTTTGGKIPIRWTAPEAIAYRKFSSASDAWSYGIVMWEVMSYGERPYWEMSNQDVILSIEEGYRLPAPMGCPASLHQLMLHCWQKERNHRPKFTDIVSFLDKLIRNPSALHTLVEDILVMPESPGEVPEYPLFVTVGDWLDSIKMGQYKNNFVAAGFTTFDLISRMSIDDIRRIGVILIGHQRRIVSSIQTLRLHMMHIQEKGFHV
LIM domain kinase 1 (Homo sapiens), sequence (P53667 whole entry, looked up, the tested form may be a part): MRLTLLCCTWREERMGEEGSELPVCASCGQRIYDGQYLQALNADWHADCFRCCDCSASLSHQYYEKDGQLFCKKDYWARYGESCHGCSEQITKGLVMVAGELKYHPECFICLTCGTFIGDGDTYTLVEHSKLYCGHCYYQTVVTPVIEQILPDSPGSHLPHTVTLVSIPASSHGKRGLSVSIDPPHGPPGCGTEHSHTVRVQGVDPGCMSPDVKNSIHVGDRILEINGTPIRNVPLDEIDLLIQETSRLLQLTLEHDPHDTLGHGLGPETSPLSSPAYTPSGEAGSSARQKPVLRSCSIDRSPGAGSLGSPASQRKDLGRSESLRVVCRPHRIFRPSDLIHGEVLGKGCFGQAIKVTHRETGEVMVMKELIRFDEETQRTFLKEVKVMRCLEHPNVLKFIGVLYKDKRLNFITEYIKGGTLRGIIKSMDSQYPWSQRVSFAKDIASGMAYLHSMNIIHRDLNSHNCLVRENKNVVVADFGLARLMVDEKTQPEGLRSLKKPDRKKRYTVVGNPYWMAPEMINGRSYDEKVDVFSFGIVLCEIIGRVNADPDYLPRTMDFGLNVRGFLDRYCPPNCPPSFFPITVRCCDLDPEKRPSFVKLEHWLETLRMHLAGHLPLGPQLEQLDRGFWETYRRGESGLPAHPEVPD
Muscarinic acetylcholine receptor M3 (Homo sapiens), sequence (P20309 whole entry, looked up): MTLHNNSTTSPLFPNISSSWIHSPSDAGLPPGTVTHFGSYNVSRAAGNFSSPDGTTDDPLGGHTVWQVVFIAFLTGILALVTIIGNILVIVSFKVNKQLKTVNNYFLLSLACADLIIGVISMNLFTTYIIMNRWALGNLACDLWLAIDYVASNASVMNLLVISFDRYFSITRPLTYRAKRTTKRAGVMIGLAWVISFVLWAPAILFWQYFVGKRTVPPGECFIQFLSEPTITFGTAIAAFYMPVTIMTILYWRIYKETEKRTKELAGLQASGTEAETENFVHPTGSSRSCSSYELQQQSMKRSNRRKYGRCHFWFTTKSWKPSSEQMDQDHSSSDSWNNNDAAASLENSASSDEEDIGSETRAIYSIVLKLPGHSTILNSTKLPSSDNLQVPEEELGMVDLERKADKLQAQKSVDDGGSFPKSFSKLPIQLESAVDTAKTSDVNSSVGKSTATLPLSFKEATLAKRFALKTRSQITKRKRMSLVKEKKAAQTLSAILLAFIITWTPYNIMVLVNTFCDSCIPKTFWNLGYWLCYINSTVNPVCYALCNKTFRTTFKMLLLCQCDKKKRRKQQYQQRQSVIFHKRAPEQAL

Cn1nc(C(=O)NCc2ccc(C(=O)O)cc2)cc1-c1ccc2[nH]ccc2c1 [BI 4395]
inactive: residual activity [1] 91% | residual activity [2] 62% | residual activity [3] 100% | residual activity [4] 89% | residual activity [5] 66% | residual activity [6] 89% | residual activity [7] 65% | inhibition [8] -0.66% | residual activity [9] 100% | residual activity [10] 100% | residual activity [11] 100% | residual activity [12] 70% | residual activity [13] 100% | residual activity [14] 91% | residual activity [15] 89% | residual activity [16] 84% | residual activity [17] 100% | residual activity [18] 74% | residual activity [19] 90% | residual activity [20] 100% | residual activity [21] 100% | residual activity [22] 100% | residual activity [23] 100% | residual activity [24] 74% | residual activity [25] 77% | residual activity [26] 92% | residual activity [27] 93% | residual activity [28] 87% | residual activity [29] 93% | residual activity [30] 95% | residual activity [31] 95% | residual activity [32] 60% | residual activity [33] 100% | residual activity [34] 66% | residual activity [35] 97% | residual activity [36] 91% | residual activity [37] 80% | residual activity [38] 90% | residual activity [39] 100% | inhibition [40] 0.78% | residual activity [41] 68% | residual activity [42] 95% | residual activity [43] 100% | residual activity [44] 97%

CCOC(=O)c1cc2cc(-c3cc(C(=O)NCc4ccc(C(=O)O)cc4)nn3C)ccc2[nH]1 [BI 4394]
inactive: residual activity [1] 76% | residual activity [2] 100% | residual activity [3] 100% | residual activity [4] 89% | residual activity [5] 72% | residual activity [6] 100% | residual activity [7] 90% | inhibition [8] 4.89% | residual activity [9] 92% | residual activity [10] 100% | residual activity [11] 87% | residual activity [12] 100% | residual activity [13] 100% | residual activity [14] 100% | residual activity [15] 93% | residual activity [16] 81% | residual activity [17] 95% | residual activity [18] 100% | residual activity [19] 100% | residual activity [20] 79% | residual activity [21] 100% | residual activity [22] 97% | residual activity [23] 93% | residual activity [24] 89% | residual activity [25] 84% | residual activity [26] 95% | residual activity [27] 97% | residual activity [28] 61% | residual activity [29] 76% | residual activity [30] 87% | residual activity [31] 75% | residual activity [32] 96% | residual activity [33] 94% | residual activity [34] 100% | residual activity [35] 68% | residual activity [36] 100% | residual activity [37] 100% | residual activity [38] 100% | residual activity [39] 76% | inhibition [40] 14.8% | residual activity [41] 80% | residual activity [42] 99% | residual activity [43] 97% | residual activity [44] 65%
